Reference: paper PMC4604124, “In Vitro Characterization of the Pharmacological Properties of the Anti-Cancer Chelator, Bp4eT, and Its Phase I Metabolites” (PLoS ONE, 2015)
pIC50: −log10 of the molar value. “And” between values parts separate entries of the source, which are not always exact repeats. Identical values can stand only once.

Assays:
H9c2 cardiomyoblasts = test: MTT cytotoxicity assay, H9c2 cells; type: cell-based, rat; conditions: H9c2, 72 h/37°C, MTT; mean ± SD, n ≥ 4; read-out: IC50
Procedure: (§1) For cytotoxicity experiments, cancer cells were seeded at a density of 5,000 (MCF-7), 10,000 (HL-60) or 2,000 cells/well (HCT116 and A549) in 96-well plates (TPP) for 24 h/37°C prior to the addition of examined agents. The non-cancerous cells, 3T3 and H9c2 cells, were cultured for 24 h/37°C in 96-well plates at a density of 10,000 cells/well, the medium was then changed to serum- and pyruvate-free DMEM (Sigma-Aldrich) and incubated with the cells for another 24 h/37°C. The cytotoxic effects of Bp4eT and its metabolites were studied at different concentrations after a 72 h/37°C incubation. In order to aid the dissolution of the lipophilic ligands, 0.1% dimethyl sulfoxide (v/v) (DMSO; Sigma-Aldrich) was present in the culture medium of all groups. At this concentration, DMSO had no effect on cellular proliferation or viability.
(§2) The viability of cells were determined using an MTT assay (Sigma-Aldrich) according to previously established methods. The optical density of soluble MTT was measured at λ = 570 nm, subtracting the λ = 690 nm background using a Tecan Infinite 200M plate reader (Tecan Group, Männedorf, Switzerland). The viability or proliferation of experimental groups was expressed as a percentage of the untreated controls (100%).
(§3) SigmaStat for Windows 3.5 (Systat Software, San Jose, CA, USA) statistical software package was utilized to analyze results. The data are expressed as the mean ± SD of a given number of experiments. Statistical significance was determined using a one-way ANOVA with a Bonferroni post-hoc test or Student’s t-test. The results were considered to be statistically significant when p < 0.05. The IC50 values were calculated using CalcuSyn 2.0 software (Biosoft, Cambridge, UK). Cell cycle analysis was evaluated using MultiCycle AV Software (Phoenix Flow Systems, San Diego, CA, USA).

[1] = system: 3T3 mouse embryo fibroblasts; test: MTT cytotoxicity assay, 3T3 cells; type: cell-based; conditions: Mus musculus, Fibroblast, 72 h, 3T3, 72 h; read-out: IC50
Procedure: as §1, §2, §3

[2] = system: cancer cells (HL-60, MCF-7, HCT116, A549) and non-cancerous cells (H9c2, 3T3); test: MTT cytotoxicity assay, summary over the cell line panel; type: cell-based; conditions: HL-60, MCF-7, HCT116, A549; 72 h; read-out: IC50, range over cancer cells
Procedure: as §1, §2, §3

[3] = system: labile iron pool of MCF-7 cells; test: Calcein-AM assay, access to the labile iron pool; type: cell-based, human; conditions: 10 μM, MCF-7, mean of 6 experiments
Procedure: These experiments were performed according to Glickstein et al. with slight modifications. The MCF-7 cells were seeded in 96-well plates (10,000 cells/well) and allowed to adhere for 24 h/37°C. Cells were loaded with iron using the cellular iron donor, ferric ammonium citrate (530 μg/mL), 24 h prior to the experiment, and then washed. To prevent potential interference, especially with regard to various trace elements, the medium was replaced with ADS buffer (prepared using Millipore water supplemented with 116 mM NaCl, 5.3 mM KCl, 1 mM CaCl2, 1.2 mM MgSO4, 1.13 mM NaH2PO4, 5 mM D-glucose, and 20 mM HEPES, pH 7.4). Cells were then loaded with 2 μM of the cell-permeable calcein green acetoxymethyl ester (calcein-AM; Molecular Probes, Oregon, USA) for 30 min/37°C and washed. Cellular esterases cleave the acetoxymethyl groups to form the cell membrane-impermeable compound, calcein green. The fluorescence of calcein green is quenched upon binding iron. The intracellular fluorescence (λex = 488 nm; λem = 530 nm) of calcein green was then followed as a function of time (10 min after the addition of 10 μM Bp4eT or its metabolites) at 37°C using the Tecan Infinite 200M plate reader. The iron chelation efficacy of the metabolites in cells was expressed as a percentage of the efficacy of the parent chelator, Bp4eT (100%).

MCF-7 cells = test: Cellular 59Fe uptake from 59Fe2-transferrin; type: cell-based, human; conditions: 25 μM, 3 h/37°C, MCF-7, 0.75 μM 59Fe2-Tf
Text: Human transferrin (Sigma) was labeled with ^56Fe or ^59Fe (PerkinElmer, Massachusetts, USA) to produce ^56Fe2-transferrin or ^59Fe2-transferrin (^59Fe2-Tf), respectively, with a final specific activity of 500 pCi/pmol Fe, as previously described. Unbound ^59Fe was removed by exhaustive vacuum dialysis against a large excess of 0.15 M NaCl buffered to pH 7.4 with 1.4% NaHCO3 by standard methods.
The ability of the chelators to prevent cellular ^59Fe uptake from ^59Fe2-transferrin was examined using standard techniques. In brief, confluent MCF-7 cells in 6-well plates were incubated with 0.75 μM ^59Fe2-Tf for 3 h/37°C in the presence of Bp4eT or its metabolites (25 μM). The cells were then washed four times with ice-cold PBS and the level of internalized ^59Fe was determined by incubating the cell monolayer for 30 min/4°C with the general protease, Pronase (1 mg/mL; Sigma-Aldrich). The cells were then removed from the monolayer with a plastic spatula on ice and centrifuged for 1 min/12,000 x g/4°C. The supernatant represents membrane-bound, Pronase-sensitive ^59Fe that was released by the protease, while the Pronase-insensitive fraction represents internalized ^59Fe. The amount of internalized ^59Fe was expressed as a percentage of ^59Fe internalized by control (untreated) cells.

[4] = set-up: method as in PMID 24254882; conditions: E and Z isomers, after Bp4eT; cited from earlier work
LC3-II = test: Western blot and densitometry of LC3-I/II (autophagy); type: cell-based, human; conditions: for densitometry WB, relative to NT = 1: single blot
Text: Established protocols were used to prepare cell lysates and perform immunoblot analysis. Primary antibodies used include: rabbit LC3 (Cat. #: MBPM036; 1:2,000) from Abacus (Brisbane, Australia) and mouse β-actin (Cat. #: A1978, 1:10,000) from Sigma-Aldrich. The following secondary antibodies were utilized: horseradish peroxidase (HRP)-conjugated anti-rabbit (Cat. #: A6154, […]) and anti-mouse (Cat. #: A4416, 1:10,000) antibodies from Sigma-Aldrich. To ensure equal loading of proteins, membranes were probed for β-actin.

cancer cells = system: cancer cells; set-up: method as in PMID 17602603, PMID 23074173, PMID 2758414, PMID 20036563; conditions: cited from earlier work
[5] = Supplementary Fig 2, Baf+, 10nM
[6] = Supplementary Fig 2, Baf+, 5uM (5M [sic] for Bp4eT)

`CCNC(=O)NN=C(c1ccccc1)c1ccccn1` [Bp4eS, 2-benzoylpyridine 4-ethylsemicarbazone] showed a pIC50 (H9c2 cardiomyoblasts) of 3.46, a pIC50 [1] of under 3.00 and a pIC50 [2] of 3.27 to 4.34. The “Chelation efficacy: fluorescence of free calcein at t = 600 s as percentage of Bp4eT” value [3] was at most 1.0%, the “Internalized 59Fe uptake, % of the control” value (MCF-7 cells) was “comparable to the untreated control” and the Concentration in plasma [4] was under 0.02 µM.
With `CN(C)C(=S)NN=C(c1ccccn1)c1ccccn1` [Dp44mT, di-2-pyridylketone 4,4-dimethyl-3-thiosemicarbazone, reference compound] the “LC3-II with Baf A1 relative to Baf A1 and control” value (LC3-II; 24 h/37°C, MCF-7, agent 5 μM, Baf A1 100 nM) was “significant (p < 0.05) increase”, the “LC3II expression with Baf A1 relative to Baf A1 and control” value (LC3-II; 24 h/37°C, MCF-7, agent 10 and 100 nM, Baf A1 100 nM) was “did not lead to a significant (p > 0.05) increase” and the “LC3-II levels upon co-incubation with Baf A1, compared to Baf A1 alone” value (LC3-II; 72 h/37°C, MCF-7, Baf A1 100 nM, Bp4eT 10 and 100 nM, Dp44mT 100 nM) was “significant (p < 0.001–0.05) suppression”. The “densitometry WB, relative to NT = 1, Average” value (LC3-II; Fig 7E, 100nM) was 4.573, the “densitometry WB, relative to NT = 1, Average” value (LC3-II; Supplementary Fig 2, 10nM) was 1.013 and the “densitometry WB, relative to NT = 1, Average” value (LC3-II; Supplementary Fig 2, 100nM) was 0.7153. The “densitometry WB, relative to NT = 1, Average” value (LC3-II; Supplementary Fig 2, 5uM (5M [sic] for Bp4eT)) was 2.9502, the “densitometry WB, relative to NT = 1, Average” value (LC3-II; [5]) was 97.312 and the “densitometry WB, relative to NT = 1” value (LC3-II; [5]) was 76.4364 and 79.3437 and 136.156. For the same compound, the “densitometry WB, relative to NT = 1, Average” value (LC3-II; Supplementary Fig 2, Baf+, 100nM) was 73.568, the “densitometry WB, relative to NT = 1, Average” value (LC3-II; [6]) was 249.127 and the “densitometry WB, relative to NT = 1” value (LC3-II; [6]) was 275.571 and 204.438 and 267.371. The “LC3-II levels compared to the control” value (LC3-II; agent alone, 72 h/37°C, MCF-7, Bp4eT 10 and 100 nM, Dp44mT 100 nM, Baf A1 100 nM) was “slight, but significant (p < 0.05) increase”.
For `O=C(O)c1ccc(-n2nc(-c3ccccc3O)nc2-c2ccccc2O)cc1` [deferasirox], the “IC50 values against cancer cells” value (cancer cells) is given as “μM range”.
